The DC50 is the concentration at which degradation of the target reaches its halfway point.

Each structure is given as a SMILES string.

The target of the first experiment is T1, ER (Homo sapiens, UniProt P03372).
T1 construct: host or cells: T47D and MCF7 human breast cancer cells
T1 sequence (P03372 1-595): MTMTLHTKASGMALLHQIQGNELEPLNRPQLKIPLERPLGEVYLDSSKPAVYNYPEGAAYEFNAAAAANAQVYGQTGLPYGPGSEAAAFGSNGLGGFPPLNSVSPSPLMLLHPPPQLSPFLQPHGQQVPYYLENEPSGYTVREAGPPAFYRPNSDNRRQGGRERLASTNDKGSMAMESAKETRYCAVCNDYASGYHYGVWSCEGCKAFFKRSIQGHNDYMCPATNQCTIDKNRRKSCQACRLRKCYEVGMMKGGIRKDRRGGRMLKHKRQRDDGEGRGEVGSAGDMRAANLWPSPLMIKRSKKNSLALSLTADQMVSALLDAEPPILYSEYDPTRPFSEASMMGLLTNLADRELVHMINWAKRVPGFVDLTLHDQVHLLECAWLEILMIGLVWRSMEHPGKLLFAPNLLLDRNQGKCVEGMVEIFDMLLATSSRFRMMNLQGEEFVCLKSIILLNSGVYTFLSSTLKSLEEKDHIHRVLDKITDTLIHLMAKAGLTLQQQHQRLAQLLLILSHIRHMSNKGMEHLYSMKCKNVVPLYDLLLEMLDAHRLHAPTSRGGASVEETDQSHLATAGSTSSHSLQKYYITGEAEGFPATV
As to the kind of experiment: ER degradation activity, in-cell western blot analysis in T47D cells. In kind it is cell-based. Conditions: 16 hours, Table A does not say which cell line (T47D or MCF7), read-out: Potency (DC50). In a few lines: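 Read-out is near-infrared fluorescence from an in-cell western, expressed as ER percentage relative to untreated and DMSO controls taken as 100%. T47D breast cancer cells received compound for 16 h in 0.5% DMSO.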
In the case of `O=C1CCC(N2C(=O)c3cc4c(cc3C2=O)CN(CC(=O)N2CCC3(CC2)CCN(c2ccc([C@@H]5c6ccc(O)cc6CC[C@@H]5c5ccc(F)cc5)cn2)CC3)C4)C(=O)N1` (mixture of isomers) [E 185, Rac-2-(2,6-dioxopiperidin-3-yl)-6-(2-(9-(5-((1S,2S)-2-(4-fluorophenyl)-6-hydroxy-1,2,3,4-tetrahydronaphthalen-1-yl)pyridin-2-yl)-3,9-diazaspiro[5.5]undecan-3-yl)-2-oxoethyl)-6,7-dihydropyrrolo[3,4-f]isoindole-1,3(2H,5H)-dione], the half-maximal degradation concentration (DC50) is above 0.1 µM. `C[C@@H]1Cc2c([nH]c3ccccc23)[C@@H](c2ccc(C3=CCC(C(=O)N4CCC(N5Cc6cc7c(cc6C5)C(=O)N(C5CCC(=O)NC5=O)C7=O)CC4)CC3)cc2)N1CC(F)F` (stereo partly drawn) [E 316, 6-(1-(4′-((1R,3R)-2-(2,2-difluoroethyl)-3-methyl-2,3,4,9-tetrahydro-1H-pyrido[3,4-b]indol-1-yl)-2,3,4,5-tetrahydro-[1,1′-biphenyl]-4-carbonyl)piperidin-4-yl)-2-(2,6-dioxopiperidin-3-yl)-6,7-dihydropyrrolo[3,4-f]isoindole-1,3(2H,5H)-dione]: the 50% degradation concentration (DC50) was above 0.1 µM. As to `C[C@@H]1Cc2c([nH]c3ccccc23)[C@@H](c2c(F)cc(N3CCC4(CCN(CC(=O)N5Cc6cc7c(cc6C5)C(=O)N(C5CCC(=O)NC5=O)C7=O)C4)CC3)cc2F)N1CC(F)F` (stereo partly drawn) [E 62, 6-(2-(8-(4-((1R,3R)-2-(2,2-difluoroethyl)-3-methyl-2,3,4,9-tetrahydro-1H-pyrido[3,4-b]indol-1-yl)-3,5-difluorophenyl)-2,8-diazaspiro[4.5]decan-2-yl)acetyl)-2-(2,6-dioxopiperidin-3-yl)-6,7-dihydropyrrolo[3,4-f]isoindole-1,3(2H,5H)-dione], the 50% degradation concentration (DC50) is below 0.01 µM. Still for that read-out and setting: then `C[C@@H]1Cc2c([nH]c3ccccc23)[C@@H](c2c(F)cc(N3CCC4(CCN(C(=O)CN5Cc6cc7c(cc6C5)C(=O)N(C5CCC(=O)NC5=O)C7=O)CC4)C3)cc2F)N1CC(F)F` (stereo partly drawn) [E 135, 6-(2-(2-(4-((1R,3R)-2-(2,2-difluoroethyl)-3-methyl-2,3,4,9-tetrahydro-1H-pyrido[3,4-b]indol-1-yl)-3,5-difluorophenyl)-2,8-diazaspiro[4.5]decan-8-yl)-2-oxoethyl)-2-(2,6-dioxopiperidin-3-yl)-6,7-dihydropyrrolo[3,4-f]isoindole-1,3(2H,5H)-dione], with below 0.01 µM; and `O=C1CCC(N2C(=O)c3cc4c(cc3C2=O)CN(CC(=O)N2CC3(CCN(c5ccc([C@@H]6c7ccc(O)cc7CC[C@@H]6c6ccc(F)cc6)cc5)CC3)C2)C4)C(=O)N1` (mixture of isomers) [E 19, Rac-2-(2,6-dioxopiperidin-3-yl)-6-(2-(7-(4-((1R,2S)-2-(4-fluorophenyl)-6-hydroxy-1,2,3,4-tetrahydronaphthalen-1-yl)phenyl)-2,7-diazaspiro[3.5]nonan-2-yl)-2-oxoethyl)-6,7-dihydropyrrolo[3,4-f]isoindole-1,3(2H,5H)-dione], with below 0.01 µM. Same read-out and setting: the same measure for `C[C@@H]1Cc2cc(O)ccc2[C@@H](c2ccc(N3CCC(C(=O)N4CC(CN5Cc6cc7c(cc6C5)C(=O)N(C5CCC(=O)NC5=O)C7=O)C4)CC3)cn2)N1CC(F)F` (stereo partly drawn) [E 351, 6-((1-(1-(6-((1S,3R)-2-(2,2-difluoroethyl)-6-hydroxy-3-methyl-1,2,3,4-tetrahydroisoquinolin-1-yl)pyridin-3-yl)piperidine-4-carbonyl)azetidin-3-yl)methyl)-2-(2,6-dioxopiperidin-3-yl)-6,7-dihydropyrrolo[3,4-f]isoindole-1,3(2H,5H)-dione]: above 0.1 µM; for `O=C1CCC(N2C(=O)c3cc4c(cc3C2=O)CN(CCN2CCC3(CC2)CN(c2ccc([C@@H]5c6ccc(O)cc6CC[C@@H]5c5ccccc5)cc2)C3)C4)C(=O)N1` (mixture of isomers) [E 266, rac-2-(2,6-dioxopiperidin-3-yl)-6-(2-(2-(4-((1R,2S)-6-hydroxy-2-phenyl-1,2,3,4-tetrahydronaphthalen-1-yl)phenyl)-2,7-diazaspiro[3.5]nonan-7-yl)ethyl)-6,7-dihydropyrrolo[3,4-f]isoindole-1,3(2H,5H)-dione]: 0.01 to 0.1 µM. Consider `C[C@@H]1Cc2c([nH]c3ccccc23)[C@@H](c2c(F)cc(-c3ccc(C(=O)N4CCC(N5Cc6cc7c(cc6C5)C(=O)N(C5CCC(=O)NC5=O)C7=O)CC4)nc3)cc2F)N1CC(F)F` (stereo partly drawn) [E 325, 6-(1-(5-(4-((1R,3R)-2-(2,2-difluoroethyl)-3-methyl-2,3,4,9-tetrahydro-1H-pyrido[3,4-b]indol-1-yl)-3,5-difluorophenyl)picolinoyl)piperidin-4-yl)-2-(2,6-dioxopiperidin-3-yl)-6,7-dihydropyrrolo[3,4-f]isoindole-1,3(2H,5H)-dione], for which the DC50 lay in the range of 0.01 to 0.1 µM. Still for that read-out and setting: then `O=C1CCC(N2C(=O)c3cc4c(cc3C2=O)CN(C2CCC(NC3CCN(c5ccc([C@@H]6c7ccc(O)cc7CC[C@@H]6c6ccccc6)cc5)CC3)CC2)C4)C(=O)N1` (stereo partly drawn) [E 303, 2-(2,6-dioxopiperidin-3-yl)-6-(4-((1-(4-((1R,2S)-6-hydroxy-2-phenyl-1,2,3,4-tetrahydronaphthalen-1-yl)phenyl)piperidin-4-yl)amino)cyclohexyl)-6,7-dihydropyrrolo[3,4-f]isoindole-1,3(2H,5H)-dione], with above 0.1 µM.

On to `CN(C1CCN(c2ccc([C@@H]3c4ccc(O)cc4CC[C@@H]3c3ccccc3)cc2)CC1)C1CC(C(=O)N2Cc3cc4c(cc3C2)C(=O)N(C2CCC(=O)NC2=O)C4=O)C1` (stereo partly drawn) [E 362, 2-(2,6-dioxopiperidin-3-yl)-6-(3-((1-(4-((1R,2S)-6-hydroxy-2-phenyl-1,2,3,4-tetrahydronaphthalen-1-yl)phenyl)piperidin-4-yl)(methyl)amino)cyclobutane-1-carbonyl)-6,7-dihydropyrrolo[3,4-f]isoindole-1,3(2H,5H)-dione], for which the DC50 is above 0.1 µM. Take `C[C@@H]1Cc2c([nH]c3ccccc23)[C@@H](c2ccc(N3CCC(C(=O)N4CCC(N5Cc6cc7c(cc6C5)C(=O)N(C5CCC(=O)NC5=O)C7=O)CC4)CC3)cc2F)N1CC(F)F` (stereo partly drawn) [E 302, 6-(1-(1-(4-((1R,3R)-2-(2,2-difluoroethyl)-3-methyl-2,3,4,9-tetrahydro-1H-pyrido[3,4-b]indol-1-yl)-3-fluorophenyl)piperidine-4-carbonyl)piperidin-4-yl)-2-(2,6-dioxopiperidin-3-yl)-6,7-dihydropyrrolo[3,4-f]isoindole-1,3(2H,5H)-dione]: the DC50 was below 0.01 µM. In the case of `O=C1CCC(N2C(=O)c3cc4c(cc3C2=O)CN(C2CCN(C(=O)C3(F)CCN(c5ccc([C@@H]6c7ccc(O)cc7CC[C@@H]6c6ccccc6)cc5)CC3)CC2)C4)C(=O)N1` (stereo partly drawn) [E 241, 2-(2,6-dioxopiperidin-3-yl)-6-(1-(4-fluoro-1-(4-((1R,2S)-6-hydroxy-2-phenyl-1,2,3,4-tetrahydronaphthalen-1-yl)phenyl)piperidine-4-carbonyl)piperidin-4-yl)-6,7-dihydropyrrolo[3,4-f]isoindole-1,3(2H,5H)-dione], the 50% degradation concentration (DC50) was above 0.1 µM.

With `O=C1CCC(N2C(=O)c3cc4c(cc3C2=O)CN(CC(=O)N2CC3(CCN(c5ccc([C@@H]6c7ccc(O)cc7CC[C@@H]6c6ccccc6)cc5)CC3)C2)CC4)C(=O)N1` (mixture of isomers) [E 163, rac-2-(2,6-dioxopiperidin-3-yl)-6-(2-(7-(4-((1R,2S)-6-hydroxy-2-phenyl-1,2,3,4-tetrahydronaphthalen-1-yl)phenyl)-2,7-diazaspiro[3.5]nonan-2-yl)-2-oxoethyl)-5,6,7,8-tetrahydro-1H-pyrrolo[3,4-g]isoquinoline-1,3(2H)-dione], the half-maximal degradation concentration (DC50) lay in the range of 0.01 to 0.1 µM. On to `O=C1CCC(N2C(=O)c3cc4c(cc3C2=O)CN(CC2CN(CC3CCN(c5ccc([C@@H]6c7ccc(O)cc7CC[C@@H]6c6ccc(F)cc6)cc5)CC3)C2)C4)C(=O)N1` (stereo partly drawn) [E 274, 2-(2,6-dioxopiperidin-3-yl)-6-((1-((1-(4-((1R,2S)-2-(4-fluorophenyl)-6-hydroxy-1,2,3,4-tetrahydronaphthalen-1-yl)phenyl)piperidin-4-yl)methyl)azetidin-3-yl)methyl)-6,7-dihydropyrrolo[3,4-f]isoindole-1,3(2H,5H)-dione], for which the DC50 is above 0.1 µM. With `O=C1CCC(N2C(=O)c3cc4c(cc3C2=O)CN(C2CCC(CNC3CN(c5ccc([C@@H]6c7ccc(O)cc7CC[C@@H]6c6ccccc6)cc5)C3)CC2)C4)C(=O)N1` (stereo partly drawn) [E 338, 2-(2,6-dioxopiperidin-3-yl)-6-(4-(((1-(4-((1R,2S)-6-hydroxy-2-phenyl-1,2,3,4-tetrahydronaphthalen-1-yl)phenyl)azetidin-3-yl)amino)methyl)cyclohexyl)-6,7-dihydropyrrolo[3,4-f]isoindole-1,3(2H,5H)-dione], the half-maximal degradation concentration (DC50) was above 0.1 µM.

Staying with this experiment, now noted: compounds 16 hours, Table A does not say whether T47D or MCF7, read-out: Potency (DC50).
With `C[C@@H]1Cc2cc(O)ccc2[C@@H](c2ccc(C(=O)N3CCC4(CCC(CN5Cc6cc7c(cc6C5)C(=O)N(C5CCC(=O)NC5=O)C7=O)CC4)CC3)cc2)N1CC(F)F` (stereo partly drawn) [E 454, 6-((3-(4-((1R,3R)-2-(2,2-difluoroethyl)-6-hydroxy-3-methyl-1,2,3,4-tetrahydroisoquinolin-1-yl)benzoyl)-3-azaspiro[5.5]undecan-9-yl)methyl)-2-(2,6-dioxopiperidin-3-yl)-6,7-dihydropyrrolo[3,4-f]isoindole-1,3(2H,5H)-dione], the DC50 was above 0.1 µM.

The values above are taken from patent publication US20240190880A1 (THE REGENTS OF THE UNIVERSITY OF MICHIGAN, priority 2021, published 2024).
